Blank lines part the entries; values can stand above or below the compound they belong to.
Experiments:
[1] = system: HCV genotype 1b replicon (GS4.1 cells); test: HCV replicon assay (NS4A ELISA); type: cell-based, hepatitis C virus; conditions: Hepatitis C virus, 72 h, 3 days
Procedure: The biological activity of Compound 1, diastereomer 1 and diastereomer 2 was measured by monitoring expression of the NS4A protein by enzyme-linked immunosorbent assay (ELISA) and by luciferase assay as described below:
The HCV replicon assay measures the ability of a test compound to inhibit HCV replication in cell culture after 3 days of treatment in a human hepatoma cell line (Huh-7) bearing the HCV genotype 1b replicon (GS4.1 cells). The inhibition of HCV replication was measured by quantification of viral NS4A protein using an enzyme-linked immunosorbent assay (ELISA). […] Additionally, the replicon contains the neomycin phosphotransferase gene under the control of the HCV promoter (Source: Dr. Christoph Seeger, Fox Chase Cancer Center, Philadelphia, Pa.).
The NS4A ELISA assay is summarized as follows. Ninety-six-well tissue culture plates were seeded with GS4.1 cells. Antiviral compound solutions were made up freshly in medium as 2×-concentrated stocks. Eight additional 3-fold drug dilutions were prepared from these stocks in medium for a total of 9 dilutions. At least four hours after GS4.1 cells were seeded, drug treatment was initiated by adding one volume of each 2× concentrated drug dilution to one volume of cells/medium in the tissue culture plates. Cells were then incubated for 3 days at 37° C./5% CO2.
The media/compound was then removed from the plates and cells were fixed with acetone:methanol, washed three times with a wash solution, and then blocked for 1 hour with 10% fetal bovine serum in a balanced salt solution. Cells were washed three times and incubated with an anti-hepatitis C NS4A monoclonal antibody (Virogen Corp.) for 2 hours at 37° C. […] The reaction was stopped with diluted sulfuric acid (Mallinckrodt Chemicals) and absorbance measured on a Victor^3V 1420 multilabel counter (Perkin Elmer). EC50 values were calculated from dose response curves from the resulting best-fit equations determined by Microsoft Excel and XLfit 4.1 software.

CYP2C19 = CYP2C19 (Homo sapiens, UniProt P33261); test: Incubation with human recombinant CYP450 supersomes, 2C19; type: in vitro ADME; conditions: CYP450 2C19 supersomes, 60 min, 10 μM, average of two experiments
Chain of CYP2C19 (P33261 whole entry): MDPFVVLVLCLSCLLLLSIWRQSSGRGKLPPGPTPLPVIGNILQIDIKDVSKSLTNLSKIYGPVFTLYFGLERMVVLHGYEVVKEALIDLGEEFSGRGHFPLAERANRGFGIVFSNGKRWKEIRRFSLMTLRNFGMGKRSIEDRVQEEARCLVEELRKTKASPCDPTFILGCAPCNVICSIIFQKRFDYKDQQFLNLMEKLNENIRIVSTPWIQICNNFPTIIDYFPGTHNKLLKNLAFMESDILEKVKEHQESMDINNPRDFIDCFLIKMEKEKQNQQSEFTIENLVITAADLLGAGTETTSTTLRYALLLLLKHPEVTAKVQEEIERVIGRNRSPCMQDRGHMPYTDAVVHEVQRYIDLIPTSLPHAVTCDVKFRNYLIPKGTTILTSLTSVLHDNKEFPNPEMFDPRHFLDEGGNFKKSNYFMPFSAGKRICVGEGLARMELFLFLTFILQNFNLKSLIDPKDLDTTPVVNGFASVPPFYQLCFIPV
Procedure: Supersomes—Incubations were conducted in a final volume of 0.1 mL reaction buffer (50-100 mM potassium phosphate, pH 7.4 or 100 mM Tris-HCL, pH 7.4) according to protocol provided with each CYP450 supersome. Each reaction contained […] of CYP450 supersome, 1.3 mM NADP^+, 3.3 mM glucose-6-phosphate, 0.4 U/mL glucose-6-phosphate dehydrogenase, 3.3 mM MgCl2 and 10 μM Compound 1. Following incubation for 60 min at 37° C., 100 μL of stop solution (acetonitrile:methanol; 1:1) was added and samples centrifuged for 10 min at 10,000×g. The supernatant was then dried and reconstituted in 10 mM potassium phosphate, pH 5, further transferred to an HPLC glass vial and analyzed by HPLC-UV (described above).

[2] = Cytotoxicity (MTS assay), 184R-D2 cells; type: cell-based; conditions: human, 184R-D2 cells (S282T), 184R-D2 (S282T), N = 3
Procedure: Cells were plated and treated with inhibitors as described above.

[3] = system: primary hepatocytes (human, monkey, rat); test: Primary hepatocytes, statements pooled over human, monkey and rat; type: in vitro ADME
Procedure: Primary hepatocytes: Freshly isolated cells from animal and human liver were obtained in suspension on ice. Cells were pelleted by centrifugation at 70-75×g (rat) or 95-90×g (monkey and human) and resuspended at 0.8 million cells per mL of platting medium (William's E supplemented with 5% FBS, 0.5% penicillin-streptomycin, 1% L-glutamine, 4 μg/mL insulin and 1 μM dexamethasone). Multi-well collagen I-coated plates (rat tail collagen type I; 12- or 6-well) were then seeded by addition of 1 mL (12-well; 0.8 million cells/well) or 2 mL (6-well; 1.6 million cells/well) of cell suspension. […]
Cellular extracts were prepared by centrifugation at 16,000 RCF using an Eppendorf microcentrifuge (Eppendorf, Model 5415D) for 10 min to remove cellular debris. An aliquot of 5-10 μL of the supernatant was added to 5 mL of EcoLite™ (MP, Irvine, Calif.) liquid scintillation cocktail and radioactivity measured by liquid scintillation counting (LSC) using a Beckman Coulter LS6500 multipurpose liquid scintillation counter (Beckman Instruments, Fullerton, Calif.). […] Prior to HPLC analysis (described below), radioactivity of the concentrated extracts was measured by LSC using 5 μL aliquots. Extraction recovery was then determined by comparing total radioactivity in extracts before and after drying. […] Samples with poor recovery (<85%) were re-analyzed when possible. […]

Compound: CC(C)(CO)C(=O)SCCOP(=O)(NCc1ccccc1)OC[C@H]1O[C@@H](n2cnc3c(=O)[nH]c(N)nc32)[C@](C)(O)[C@@H]1O (mixture of isomers) [Compound 1, 3-hydroxy-2,2-dimethyl-thiopropionic acid S-(2-{[(2R,3R,4R,5R)-5-(2-amino-6-oxo-1,6-dihydro-purin-9-yl)-3,4-dihydroxy-4-methyl-tetrahydro-furan-2-ylmethoxy]-benzylamino-phosphoryloxy}-ethyl) ester]
EC50 [1]: 379 ± 83 nM
% Residual Compound 1 (CYP2C19): 111%
CC50 at 3 days [2]: > 100000 nM

metabolites in the incubation medium following incubation with [^14C]-2′-C-methyl guanosine ([3]; primary hepatocytes, 10 μM or 1 μM): No metabolites were observed
Compound: C[C@@]1(O)[C@H](O)[C@@H](CO)O[C@H]1n1cnc2c(=O)[nH]c(N)nc21 [2′-C-methyl guanosine, 9-(2-C-methyl-β-D-ribofuranosyl)guanine, reference compound]

% of the total intracellular radioactivity ([3]; extracts of primary hepatocytes, all three species, 4-24 hours, [^14C]-Compound 1): 60-81%
Compound: C[C@@]1(O)[C@H](O)[C@@H](COP(=O)(O)OP(=O)(O)OP(=O)(O)O)O[C@H]1n1cnc2c(=O)[nH]c(N)nc21 [Compound 7, [(2R)-2-methyl-β-D-ribofuranosyl]guanine 5′-triphosphate]

From US20100003217A1, “Compounds and Pharmaceutical Compositions for the Treatment of Viral Infections” (priority 2008, published 2010)
